According to patent US20120009280A1, “METHOD OF REDUCING THE RATE OF DEGRADATION OF A BIOLOGICAL MATERIAL” (Bio-Energy Ingredients Limited, priority 2009, published 2012):

What was measured:
total micro-organism [1] = assay: Total microbial (plate) count of spent brewer's / wet distiller's grains stored at ambient temperature; type: cell-based; settings: dose 10% w/w; distiller's grains not de-watered, Examples 16-18
total micro-organism [2] = assay: as above; type: cell-based; settings: for Total plate count: dose 15% (w/w)
Source text: Samples of spent brewer's grains were drawn from the discharge line of a brewery in South Africa. The samples, packed in dry ice in a cold box, were transported over a distance of approximately 40 kilometres to a laboratory. At the laboratory, the samples were thoroughly mixed and initially split into a first portion (Portion 1) and a second portion (Portion 2). The second portion was about twice the size of the first. Portion 1 was left untreated. Material produced from Portion 1 and Portion 2 is designated below using the code “AR” (as received).
Portion 2 was placed on a clean, standard, laboratory screen deck with 1.4 mm apertures supported from below. As much water as possible was manually squeezed out with a clean flat plastic disc and the sample was then manually remixed after the squeezing. The squeezed material was then split into a third portion (Portion 3) and a fourth portion (Portion 4) of approximately the same size. Material produced from Portion 3 and Portion 4 is designated below using the code “SO” (squeezed).
Portion 4 was added to a high speed kitchen food-shredder and shredded for about two minutes. The shredded material was then returned to the 1.4 mm aperture screen and squeezed again, as described above, and manually remixed again after the second squeezing to produce a shredded and squeezed portion (Portion 5). Material produced from Portion 5 is designated below using the code “SH” (shredded).
(§1) Samples of Portion 1 (“AR”), Portion 3 (“SO”) and Portion 5 (“SH”) were then delivered to a microbiological testing facility about 15 kilometres from the treatment laboratory. Each was tested for initial total microbial, yeast and mould counts, respectively.
(§2) Separate untreated samples were similarly stored under insect-proof screens at ambient temperature for seven days (as shown in Tables 1 and 2). During the trial period the ambient temperature ranged from 11 to 33 degrees C.
After exposure to the environment for seven days, all of the samples were tested at a South African National Accreditation System (SANAS) approved microbiological testing facility. Each was tested for total micro-organism, yeast and mould counts to determine the affect of the various treatments.
Samples of spent brewer's grains were drawn from the discharge line of a brewery in South Africa.
(§3) At the laboratory, the samples were thoroughly mixed and initially split into a first portion (Portion 1) and a second portion (Portion 2). Portion 1 was left untreated. A sample of Portion 1, was delivered immediately to a microbiological testing facility about 15 kilometres away from the treatment laboratory and was tested for initial total microbial, yeast and mould counts, respectively.
Samples from Portion 2 were subjected to treatment with varying amounts of a powdered, commercially-available calcium oxide containing approximately 94% calcium oxide (CaO) as shown in Table 32. The treatments varied from 2.5 to 10% (w/w) calcium oxide addition. The samples were stored in batches (according to the calcium oxide treatment) under insect-proof screens at ambient temperature for fifty six days. […] During the trial period the ambient temperature ranged from 10 to 30 degrees C. As this period was the southern hemisphere spring/early summer, the humidity as well as ambient temperatures varied widely.
(§4) Samples from each treatment were drawn every seven days. No further calcium oxide treatment or agitation took place after the initial mix. In each case the entire sample was isolated and delivered to the microbiological testing facility.
(§5) In this trial the same source of wet distiller's grains (again with now partial water removal prior to treatment) was treated.
as §5

[3] = pH of suspensions of grain samples in distilled water or PBS; settings: dose 15% (w/w), 1% (w/w) in distilled water
Method: The untreated sample (A) was compared visually against the corresponding quicklime-treated sample (B).
On Day 7, 10 g amounts of each sample were suspended in either 90 ml PBS or 90 ml sterile distilled water and shaken for 10 minutes. The pH of each suspension was then measured and compared.
On Day 9, 10 g of each sample was suspended in 90 ml PBS and shaken for 10 minutes. The pH was measured.

yeast = assay: Yeast count of spent brewer's / wet distiller's grains stored at ambient temperature; type: cell-based; settings: dose 15% (w/w)
mould = assay: Mould count of spent brewer's / wet distiller's grains stored at ambient temperature; type: cell-based; settings: dose 15% (w/w)
Method: as §1, §2
(§6) The free moisture content on the initial spent brewer's grains was determined to be 78.1% m/m. After exposure to the environment for seven days, all of the samples were tested at a South African National Accreditation System (SANAS) approved microbiological testing facility. Each was tested for total micro-organism, yeast and mould counts to determine the affect of the various treatments. A similar procedure to that described in K. A. Rosentrater et al, Food Bioprocess Technol (2008) was used for the microbiological evaluation.
as §3, with “respectively. No water removal prior to treatment was done in this experiment as was the case in Example 8 wherein a similar wet material was partially dewatered by pressing and the residue treated with 10% (w/w/) calcium oxide.” for “respectively.”
Samples from Portion 2 were subjected to treatment with varying amounts of a powdered, commercially-available calcium oxide containing approximately 94% calcium oxide (CaO) as shown in Table 32. […] The samples were stored in batches (according to the calcium oxide treatment) under insect-proof screens at ambient temperature for fifty six days. Separate untreated samples were similarly stored under insect-proof screens at ambient temperature for a total of 56 days. During the trial period the ambient temperature ranged from 10 to 30 degrees C. As this period was the southern hemisphere spring/early summer, the humidity as well as ambient temperatures varied widely.
as §6, with “79.4%” for “78.1%”
as §4
The calcium oxide treatment trial described in Example 9 wherein wet distiller's grains were treated with 2.5%, 5% and 10.0% calcium oxide, respectively, versus untreated material was repeated using lower doses of calcium oxide. In this trial the same source of wet distiller's grains (again with now partial water removal prior to treatment) was treated. Also, the same protocol as described in Example 9 was applied, but at lower doses of calcium oxide i.e. 0.5%, 1.0%, 1.5%, 2.0% and 2.5%, respectively, versus untreated material.
In this trial the same source of wet distiller's grains (again with now partial water removal prior to treatment) was treated. Also, the same protocol as described in Example 9 was applied.

[4] = dose 15% w/w, distiller's grains not de-watered, Examples 16-18

Structure (SMILES): [Ca+2].[O-]CC(O)CO.[O-]CC(O)CO [Ca-DGO (g)]
- preservation time with total microbial counts <100 cfu/g (total micro-organism [1]): ≧4 weeks
- preservation time with total microbial counts <1000 cfu/g (total micro-organism [1]): ≧4 weeks
- preservation time with total microbial counts <100 cfu/g (total micro-organism [2]; [4]): ≧9 weeks
- preservation time with total microbial counts <1000 cfu/g (total micro-organism [2]; [4]): ≧9 weeks

Structure (SMILES): [Ca+2].[O-]CC(O)CO.[O-]CC(O)CO [Ca-DGO (p)]
- preservation time with total microbial counts <100 cfu/g (total micro-organism [1]): ≧2 weeks
- preservation time with total microbial counts <1000 cfu/g (total micro-organism [1]): ≧3 weeks
- preservation time with total microbial counts <10 cfu/g (total micro-organism [2]; [4]): ≧9 weeks
- preservation time with total microbial counts <100 cfu/g (total micro-organism [2]; [4]): ≧9 weeks
- preservation time with total microbial counts <1000 cfu/g (total micro-organism [2]; [4]): ≧9 weeks

Structure (SMILES): [Ca+2].[O-]CC(O)CO.[O-]CC(O)CO [Ca-DGO powder + granules (1:1)]
- pH ([3]; week 1): 11.47
- pH ([3]; week 2): 7.57
- pH ([3]; week 3): 7.88
- pH ([3]; week 4): 9.29
- pH ([3]; week 5): 6.78
- pH ([3]; week 6): 9.27
- pH ([3]; week 7): 7.23
- pH ([3]; week 8): 9.18
- pH ([3]; week 9): 8.93
- Yeast Count (yeast; week 1): <10 cfu/gram
- Yeast Count (yeast; week 2): <10 cfu/gram
- Yeast Count (yeast; week 3): <10 cfu/gram
- Yeast Count (yeast; week 4): <10 cfu/gram
- Yeast Count (yeast; week 5): 20 cfu/gram
- Yeast Count (yeast; week 6): <10 cfu/gram
- Yeast Count (yeast; week 7): <10 cfu/gram
- Yeast Count (yeast; week 8): <10 cfu/gram
- Yeast Count (yeast; week 9): <10 cfu/gram
- Mould Count (mould; week 1): <10 cfu/gram
- Mould Count (mould; week 2): <10 cfu/gram
- Mould Count (mould; week 3): <10 cfu/gram
- Mould Count (mould; week 4): <10 cfu/gram
- Mould Count (mould; week 5): <10 cfu/gram
- Mould Count (mould; week 6): <10 cfu/gram
- Mould Count (mould; week 7): <10 cfu/gram
- Mould Count (mould; week 8): <10 cfu/gram
- Mould Count (mould; week 9): <10 cfu/gram
- Total plate count (total micro-organism [2]; week 0): 540 cfu/gram
- Total plate count (total micro-organism [2]; week 1): 50 cfu/gram
- Total plate count (total micro-organism [2]; week 2): 710 cfu/gram
- Total plate count (total micro-organism [2]; week 3): 70 cfu/gram
- Total plate count (total micro-organism [2]; week 4): <10 cfu/gram
- Total plate count (total micro-organism [2]; week 6): 150 cfu/gram
- Total plate count (total micro-organism [2]; week 7): 660 cfu/gram
- Total plate count (total micro-organism [2]; week 8): 4200 cfu/gram
- Total plate count (total micro-organism [2]; week 9): 45000 cfu/gram
